Source: US20130116554A1, “X-RAY IMAGING AT LOW CONTRAST AGENT CONCENTRATIONS AND/OR LOW DOSE RADIATION” (priority 2010, published 2013)

What was measured:
[1] = Abdominal contrast enhanced CT in minipig, arterial phase, SNR of ROI; assay type: in vivo; details: for ASiR 60% [SNR] / Veo [SNR]: 80 kVp
Procedure: (§1) An anaesthetized minipig (abdominal maximum and minimum diameters 36 cm and 20 cm, respectively) was imaged 3 times (imaging protocols 1, 2 and 3, Tables 3 and 4) on a Discovery CT 750 HD. Visipaque (60 mL) was injected at a rate of 2 mL/s into a jugular vein, followed by a 20 mL saline flush at the same injection rate. There was at least a 2 day washout period between each scanning session.
(§2) Protocol 1 with a Visipaque concentration of 320 mg l/mL and 120 kVp tube voltage represents current standard of care (SoC) imaging for humans. Automated tube current modulation (≦500 mA) was used with a noise index level of 30 and a tube rotation time of 0.7 s. Post-contrast CT images were acquired during the arterial phase, the portal venous phase, the venous phase and the late phase. Image reconstruction was done by (1) FBP, (2) ASiR 60% and (3) Veo. Pixel size was 0.703 mm×0.703 mm×0.625 mm.
(§3) Iodine contrast enhancement was assessed by measuring the signal-to-noise ratio (SNR) of circular regions of interest (ROI), see Tables 3 and 4. The SNR is calculated as ratio of mean ROI intensity in HU and standard deviation (SD). ROIs were placed in aorta and muscle (quadratus lumborum) in arterial phase images and in liver in venous phase images.

[2] = Abdominal contrast enhanced CT in minipig, venous phase, SNR of ROI; assay type: in vivo; details: liver; for ASiR 60% [SNR] / Veo [SNR]: 80 kVp
Procedure: as §1, §2, §3

[3] = protocol 1: Visipaque 320 mg I/ml, 120 kVp, CTDIvol 6.7 mGy
[4] = protocol 2: Visipaque 170 mg I/ml, CTDIvol 3.2 mGy
[5] = protocol 3: Visipaque 120 mg I/ml, CTDIvol 6.4 mGy

CC(=O)N(CC(O)CN(C(C)=O)c1c(I)c(C(=O)NCC(O)CO)c(I)c(C(=O)NCC(O)CO)c1I)c1c(I)c(C(=O)NCC(O)CO)c(I)c(C(=O)NCC(O)CO)c1I (stereo not shown) [Visipaque, iodixanol]
FBP [SNR] [1, 3]: 8.3
ASiR 60% [SNR] [1, 4]: 7.4
Veo [SNR] [1, 4]: 12.8
ASiR 60% [SNR] [1, 5]: 8.5
Veo [SNR] [1, 5]: 14.2
FBP [SNR] [2, 3]: 4.3
ASiR 60% [SNR] [2, 4]: 3.5
Veo [SNR] [2, 4]: 8.1
ASiR 60% [SNR] [2, 5]: 4.7
Veo [SNR] [2, 5]: 8.1
